Laboratory results from patent publication US7713963B2, “Acylated indanyl amines and their use as pharmaceuticals” (sanofi-aventis Deutschland GmbH, priority 2001, dated 2010).
pEC50: −log10 of the molar value.

How the values were obtained:
eNOS promoter = test: Activation of eNOS transcription (eNOS promoter-luciferase reporter gene assay); type: cell-based, human; settings: Homo sapiens, 18 h, 18 h incubation; for maximal fold induction: maximum transcription induction ratio (luciferase with compound / solvent alone), read-out: TIR (max); for pEC50: Endothelial cell, EC50 of transcription induction ratio, determined graphically, human endothelial cell line, read-out: EC-50
Outline: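 Human endothelial cell line stably expressing firefly luciferase under a 3.5 kB eNOS promoter fragment, treated 18 h with compounds (0.5% DMSO final). Luciferase induction relative to solvent gives transcription induction ratio; EC50 read graphically from ratio versus concentration.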

ApoE deficient mice [1] = test: Anti-hypertensive effect in ApoE knockout mice (tail-cuff blood pressure); type: in vivo; settings: 30 mg/kg/d, 4 months treatment, placebo 115±2 mmHg, p<0.05
From the text: (§1) Animals and Treatment (Experiments A-C)
(§2) ApoE and eNOS deficient mice (C57BL/6J background, Jackson Laboratory, Bar Harbor, Me.) were used. All animals were 10-12 weeks of age and weighed 22 to 28 g. Three days before surgery mice were divided into 4 groups (apoE control, n=10-12; apoE with test compounds, n=10-12; eNOS control, n=10-12; eNOS with test compounds, n=10-12) and received either a standard rodent chow (containing 4% fat and 0.001% cholesterol; in the following designated as placebo group) or a standard rodent chow+test compound (10 or 30 mg/kg/d p.o.).
A Anti-Hypertensive Effect in ApoE Knockout Mice
(§3) Blood-pressure was determined in conscious mice using a computerized tail-cuff system (Visitech Systems, Apex, Nc). After treatment of ApoE deficient mice and eNOS deficient mice with the test compounds the blood pressure was compared to the results obtained with a placebo treatment.

eNOS deficient mice = test: Blood pressure in eNOS deficient mice (tail-cuff); type: in vivo; settings: similar dosing, 4 weeks treatment
From the text: as §1, §2, §3

ApoE deficient mice [2] = test: Inhibition of neointima formation and atherogenesis (femoral artery cuff) in ApoE deficient mice; type: in vivo; settings: 10 mg/kg/d in chow, 3 days before to 14 days after cuff surgery, versus placebo
From the text: as §1, §2
B Inhibition of Neointima Formation and Atherogenesis (Femoral Artery Cuff)
After 3 day treatment of ApoE deficient mice with the respective compound, (10 mg/kg/d pressed in chow), animals were anesthetized with an intraperitoneal injection of pentobarbital (60 mg/kg) followed by an intramuscular injection of xylazin (2 mg/kg) and a cuff was placed around the femoral artery as described in Moroi et al. (J. Clin. Invest. 101: 1225-32, 1998). Briefly, the left femoral artery was dissected. […] The aorta were taken for determination of vascular eNOS expressions by quantitative western blotting. […] For each cross section the area of the lumen, the neointima and the media were determined. […] The ratio between the area of the neointima and the area of the media was expressed as the neointima/media ratio.

vascular eNOS expression [3] = test: Vascular eNOS expression (aorta, quantitative western blotting) in femoral artery cuff model; type: in vivo; settings: ApoE deficient mice, 10 mg/kg/d, versus placebo
Method: After 3 day treatment of ApoE deficient mice with the respective compound, (10 mg/kg/d pressed in chow), animals were anesthetized with an intraperitoneal injection of pentobarbital (60 mg/kg) followed by an intramuscular injection of xylazin (2 mg/kg) and a cuff was placed around the femoral artery as described in Moroi et al. (J. Clin. Invest. 101: 1225-32, 1998). Briefly, the left femoral artery was dissected. A non-occlusive 2.0 mm polyethylene cuff made of PE-50 tubing (inner diameter 0.56 mm, outer diameter 0.965 mm, Becton Dickinson, Mountain View, Calif.) was placed around the artery and tied in place with two 7-0 sutures. The right femoral artery was isolated from the surrounding tissues but a cuff was not placed. Treatment with the respective compound was continued for 14 days after surgery. Then the animals were sacrificed. The aorta were taken for determination of vascular eNOS expressions by quantitative western blotting. Both femoral arteries were harvested, fixed in formalin and embedded in paraffin. 20 cross sections (10 μm) were cut from the cuffed portion of the left femoral artery and from the corresponding segment of the right artery. […] For each cross section the area of the lumen, the neointima and the media were determined. […] The ratio between the area of the neointima and the area of the media was expressed as the neointima/media ratio.

vascular eNOS expression [4] = test: Vascular eNOS expression (femoral arteries) after chronic treatment; type: in vivo; settings: ApoE deficient mice, 16 weeks treatment
Method: ApoE deficient mice were treated for 16 weeks with the respective compound pressed in chow and finally sacrificed. Aortas were removed from each mouse, fixed in formalin and embedded in paraffin. Plaque formation was measured via lipid lesion formation in the aortas (from aortic arch to diaphragm) and was analyzed by oil red O staining. For quantifying the effect of the respective compound on vascular eNOS expression the femoral arteries were used in this experiment.

ApoE deficient mice [5] = test: Improvement of coronary function in diseased ApoE deficient mice (isolated working heart); type: in vivo; settings: isolated hearts of ApoE deficient mice, 30 mg/kg/d p.o. for 8 weeks
From the text: D Improvement of Coronary Function in Diseased ApoE Deficient Mice
Old Male wild-type C57BL/6J mice (Charles River Wiga GmbH, Sulzfeld), and apoE deficient mice (C57BL/6J background, Jackson Laboratory, Bar Harbor, Me.) 6 month of age and weighing 28 to 36 g were used in the experiments. Mice were divided into 3 groups (C57BL/6, n=8; apoE control, n=8; apoE with respective compound, n=8) and received for 8 weeks either a standard rodent chow (containing 4% fat and 0.001% cholesterol) or a standard rodent chow+respective compound (30 mg/kg/d p.o.).
Mice were anesthetized with sodium pentobarbitone (100 mg/kg i.p.), and the hearts were rapidly excised and placed into ice-cold perfusion buffer. The aorta was cannulated and connected to a perfusion apparatus (HUGO SACHS ELECTRONICS, Freiburg, Germany) which was started immediately at a constant perfusion pressure of 60 mm Hg. Hearts were perfused in a retrograde fashion with modified Krebs bicarbonate buffer, equilibrated with 95% O2 and 5% CO2 and maintained at 37.5° C.
A beveled small tube (PE 50) was passed through a pulmonary vein into the left ventricle and pulled through the ventricular wall, anchored in the apex by a fluted end, and connected to a tip-micromanometer (Millar 1.4 French). The left atrium was cannulated through the same pulmonary vein and the heart switched to the working mode with a constant preload pressure of 10 mm Hg and an afterload pressure of 60 mm Hg. Aortic outflow and atrial inflow were continuously measured using ultrasonic flow probes (HSE/Transonic Systems Inc.). Coronary flow was calculated as the difference between atrial flow and aortic flow. All hemodynamic data were digitized at a sampling rate of 1000 Hz and recorded with a PC using specialized software (HEM, Notocord).
Hearts were allowed to stabilize for 30 min. All functional hemodynamic data were measured during steady state, and during volume- and pressure loading.
Left ventricular function curves were constructed by varying pre-load pressure. […]

SMILES | pEC50 (eNOS promoter) | melting point [°C] | maximal fold induction (eNOS promoter) | also measured
O=C(NC1Cc2ccc(O)cc2C1)c1ccc(F)cc1 (stereo not shown) [Compound 404, 4-FLUORO-N-(5-HYDROXY-INDAN-2-YL)-BENZAMIDE] | 4.92 | 199 | 3.5 | 
O=C(NC1Cc2ccccc2C1)c1ccc(OCc2ccccc2)cc1 [Compound 40, 4-BENZYLOXY-N-INDAN-2-YL-BENZAMIDE] |  | 158.5 |  | 
O=C(NC1Cc2ccc(-c3ccc(F)cc3)cc2C1)c1ccc(F)cc1 (stereo not shown) [Compound 398A, 4-FLUORO-N-[5-(4-FLUOROPHENYL)-INDAN-2-YL]-BENZAMIDE] |  | 193 |  | 
CC(=O)c1ccc2c(c1)CC(NC(=O)c1ccc(F)cc1)C2 (stereo not shown) [Compound 399, N-(5-ACETYL-INDAN-2-YL)-4-FLUORO-BENZAMIDE] |  | 148 |  | 
O=C(NC1Cc2ccccc2C1)c1ccc2c(c1)OC(F)(F)O2 [Compound 66, 2,2-DIFLUORO-BENZO[1,3]DIOXOL-5-CARBOXYLIC ACID INDAN-2-YLAMIDE] | 6.85 | 147.5 | 2.7 | 
CC(O)c1ccc2c(c1)CC(NC(=O)c1ccc(F)cc1)C2 (stereo not shown) [Compound 402, 4-FLUORO-N-[5-(1-HYDROXY-ETHYL)-INDAN-2-YL]-BENZAMIDE] |  | 135 |  | 
O=C(C=Cc1cccc2c1CC(NC(=O)c1ccc(F)cc1)C2)Nc1ccc(Cl)cc1 (stereo not shown) [Compound 413, N-{4-[2-(4-CHLORO-PHENYLCARBAMOYL)-VINYL]-INDAN-2-YL}-4-FLUORO-BENZAMIDE] | 5.07 |  | 2.5 | 
O=C(NC1Cc2ccccc2C1)c1c(F)cccc1Br [Compound 358, 2-BROMO-6-FLUORO-N-INDAN-2-YL-BENZAMIDE] | 5.33 |  | 2.5 | 
Cc1ccc(C)n1-c1ccc(C(=O)NC2Cc3ccccc3C2)cc1 [Compound 327, 4-(2,5-DIMETHYL-PYRROL-1-YL)-N-INDAN-2-YL-BENZAMIDE] | 5.59 |  | 2.5 | 

More lines, main results first:

pEC50 (eNOS promoter) | melting point [°C] | SMILES | maximal fold induction (eNOS promoter) | also measured
6.10 |  | O=C(NC1Cc2ccccc2C1)c1ccc(F)cc1 [Compound 21, 4-FLUORO-N-(INDAN-2-YL)-BENZAMIDE] | 4.1 | blood pressure (ApoE deficient mice [1]): 92±5 mmHg; blood pressure reduction (eNOS deficient mice): No blood pressure reduction; reduction of neo-intima formation (factor) (ApoE deficient mice [2]): 2; vascular eNOS expression enhanced by a factor (vascular eNOS expression [3]): 2.1; vascular eNOS expression up-regulation (vascular eNOS expression [4]): 1.75 fold; pre-load dependent coronary flow (ApoE deficient mice [5]): improvement; incidence of ventricular arrhythmias (ApoE deficient mice [5]; indicator for anti-ischemic efficacy): reduction; coronary flow (ApoE deficient mice [5]; untreated ApoE 3.6, wildtype 4.95 ml/min): 5 mL/min
 | 160 | COc1cc2c(cc1OC)CC(NC(=O)c1ccc(F)cc1)C2 [Compound 3, 4-FLUORO-N-(5,6-DIMETHOXY-INDAN-2-YL)-BENZAMIDE] |  | 
4.52 | 157 | O=C(NC1Cc2cccc(-c3ccc(F)cc3)c2C1)c1ccc(F)cc1 (stereo not shown) [Compound 398B, 4-FLUORO-N-[4-(4-FLUOROPHENYL)-INDAN-2-YL]-BENZAMIDE] | 3.46 | 
 | 167 | O=C(NC1Cc2ccc([N+](=O)[O-])cc2C1)c1ccc(F)cc1 (stereo not shown) [Compound 389, 4-FLUORO-N-(5-NITRO-INDAN-2-YL)-BENZAMIDE] |  | 
